Results taken from patent US10322111B2, “Chemokine receptor binding heterocyclic compounds with enhanced efficacy” (Genzyme Corporation, priority 2001, dated 2019).
Like-named read-outs stand apart in the source and are kept apart here.

How the values were obtained:
[1] = test system: CFU-GM, BFU-E and CFU-GEMM progenitor cells; conditions: for Cycling Status of Progenitors, CFU-GM / Cycling Status of Progenitors, CFU-GM, AGAR Culture / Cycling Status of Progenitors, BFU-E / Cycling Status of Progenitors, CFU-GEMM: 80 μg/kg s.c.
[2] = test system: granulocyte macrophage (CFU-GM), erythroid (BFU-E), and multipotential (CFU-GEMM) progenitor cells; conditions: mice; for Fold Change Compared to Time 0, Progenitors, BFU-E / Fold Change Compared to Time 0, Progenitors, CFU-GEMM / Fold Change Compared to Time 0, Progenitors, GM / Absolute Progenitors Per ML Blood, BFU-E / Absolute Progenitors Per ML Blood, CFU-GEMM / Absolute Progenitors Per ML Blood, CFU-GM: methylcellulose culture; for Absolute Number Progenitors Per ML Blood, BFU-E / Absolute Number Progenitors Per ML Blood, CFU-GEMM / Absolute Number Progenitors Per ML Blood, CFU-GM: 1 hour post administration; for Absolute Progenitors Per ML Blood, BFU-E / Absolute Progenitors Per ML Blood, CFU-GEMM / Absolute Progenitors Per ML Blood, CFU-GM: single s.c. 5 mg/Kg

## c1cc(CN2CCCNCCNCCCNCC2)ccc1CN1CCCNCCNCCCNCC1 [AMD3100, 1,1′-[1,4-phenylene-bis(methylene)]-bis-1,4,8,11-tetraazacyclotetradecane]
[1]; P4, T = 3 h after injection
  Cycling Status of Progenitors, CFU-GM: 5%
  Cycling Status of Progenitors, CFU-GM, AGAR Culture: 0%
[1]; P4, T = 6 h after injection
  Cycling Status of Progenitors, BFU-E: 0%
  Cycling Status of Progenitors, CFU-GEMM: 8%
  Cycling Status of Progenitors, CFU-GM: 0%
  Cycling Status of Progenitors, CFU-GM, AGAR Culture: 0%
[1]; P4, T = 9 h after injection
  Cycling Status of Progenitors, BFU-E: 0%
  Cycling Status of Progenitors, CFU-GEMM: 0%
  Cycling Status of Progenitors, CFU-GM: 0%
  Cycling Status of Progenitors, CFU-GM, AGAR Culture: 0%
[1]; P4, T = 24 h after injection
  Cycling Status of Progenitors, BFU-E: 3%
  Cycling Status of Progenitors, CFU-GEMM: 0%
  Cycling Status of Progenitors, CFU-GM: 5%
  Cycling Status of Progenitors, CFU-GM, AGAR Culture: 0%
[1]; P5, T = 1 h after injection
  Cycling Status of Progenitors, BFU-E: 0%
  Cycling Status of Progenitors, CFU-GEMM: 0%
  Cycling Status of Progenitors, CFU-GM: 0%
  Cycling Status of Progenitors, CFU-GM, AGAR Culture: 3%
[1]; P5, T = 3 h after injection
  Cycling Status of Progenitors, BFU-E: 3%
  Cycling Status of Progenitors, CFU-GEMM: 0%
  Cycling Status of Progenitors, CFU-GM: 5%
  Cycling Status of Progenitors, CFU-GM, AGAR Culture: 0%
[1]; P5, T = 6 h after injection
  Cycling Status of Progenitors, BFU-E: 1%
  Cycling Status of Progenitors, CFU-GEMM: 0%
  Cycling Status of Progenitors, CFU-GM: 0%
  Cycling Status of Progenitors, CFU-GM, AGAR Culture: 1%
[1]; P5, T = 9 h after injection
  Cycling Status of Progenitors, BFU-E: 0%
  Cycling Status of Progenitors, CFU-GEMM: 0%
  Cycling Status of Progenitors, CFU-GM: 0%
  Cycling Status of Progenitors, CFU-GM, AGAR Culture: 0%
[1]; P5, T = 24 h after injection
  Cycling Status of Progenitors, BFU-E: 0%
  Cycling Status of Progenitors, CFU-GEMM: 0%
  Cycling Status of Progenitors, CFU-GM: 0%
  Cycling Status of Progenitors, CFU-GM, AGAR Culture: 0%
[1]; human donors, prior to and 1, 3, 6, 9 and 24 hours after injection
  cycling state of progenitors: slow or non-cycling state
[2]; Time 2′
  Fold Change Compared to Time 0, Progenitors, BFU-E: 2.07 fold
  Fold Change Compared to Time 0, Progenitors, CFU-GEMM: 1.85 fold
  Fold Change Compared to Time 0, Progenitors, GM: 2.86 fold
[2]; Time 15″
  Fold Change Compared to Time 0, Progenitors, BFU-E: 2.72 fold
  Fold Change Compared to Time 0, Progenitors, CFU-GEMM: 3.51 fold
  Fold Change Compared to Time 0, Progenitors, GM: 2.73 fold
[2]; Time 30″
  Fold Change Compared to Time 0, Progenitors, BFU-E: 4.24 fold
  Fold Change Compared to Time 0, Progenitors, CFU-GEMM: 4.41 fold
  Fold Change Compared to Time 0, Progenitors, GM: 6.23 fold
[2]; single s.c. 1 mg/kg
  Absolute Number Progenitors Per ML Blood, BFU-E: 62 Per ML Blood
  Absolute Number Progenitors Per ML Blood, CFU-GEMM: 27.1 Per ML Blood
  Absolute Number Progenitors Per ML Blood, CFU-GM: 424 Per ML Blood
[2]; single s.c. 2.5 mg/kg
  Absolute Number Progenitors Per ML Blood, BFU-E: 98.9 Per ML Blood
  Absolute Number Progenitors Per ML Blood, CFU-GEMM: 70.6 Per ML Blood
  Absolute Number Progenitors Per ML Blood, CFU-GM: 687.6 Per ML Blood
[2]; 15″
  Absolute Progenitors Per ML Blood, BFU-E: 134.5 Per ML Blood
  Absolute Progenitors Per ML Blood, CFU-GEMM: 90.4 Per ML Blood
  Absolute Progenitors Per ML Blood, CFU-GM: 791.6 Per ML Blood
[2]; 30″
  Absolute Progenitors Per ML Blood, BFU-E: 209.3 Per ML Blood
  Absolute Progenitors Per ML Blood, CFU-GEMM: 113.5 Per ML Blood
  Absolute Progenitors Per ML Blood, CFU-GM: 1805.5 Per ML Blood
[2]; 120″
  Absolute Progenitors Per ML Blood, BFU-E: 102.3 Per ML Blood
  Absolute Progenitors Per ML Blood, CFU-GEMM: 47.6 Per ML Blood
  Absolute Progenitors Per ML Blood, CFU-GM: 828.7 Per ML Blood
[2]; single s.c. 5 mg/kg
  Absolute Number Progenitors Per ML Blood, BFU-E: 92.8 Per ML Blood
  Absolute Number Progenitors Per ML Blood, CFU-GEMM: 69.5 Per ML Blood
  Absolute Number Progenitors Per ML Blood, CFU-GM: 608.4 Per ML Blood
[2]; single s.c. 10 mg/kg
  Absolute Number Progenitors Per ML Blood, BFU-E: 120.5 Per ML Blood
  Absolute Number Progenitors Per ML Blood, CFU-GEMM: 79.8 Per ML Blood
  Absolute Number Progenitors Per ML Blood, CFU-GM: 825.6 Per ML Blood
